Experimental data reported in US20120095024A1, “TOLUIDINE SULFONAMIDES AND THEIR USE” (Elara Pharmaceuticals GmbH, priority 2008, published 2012).

Columns and labels:
MCF7 cells = assay: Cell proliferation assay (ATPlite), MCF-7; format: cell-based, human; conditions: Homo sapiens, inhibition of cell proliferation, 72 h
Method in brief: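 Cells seeded (MCF-7 2000/well, HG-1 1000/well in RPMI with 2 ng/ml IL-6), then after 24 h exposed to compound at 0.5% DMSO final for 72 h. Proliferation read as ATP luminescence (ATPlite); EC50 calculated from the dose-response.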

HG1 cells = assay: Cell proliferation assay (ATPlite), HG-1; format: cell-based; conditions: inhibition of cell proliferation, 72 h
Experimental: MCF-7 human breast adenocarcinoma cells and HL-60 acute promyelocytic leukaemia cells were obtained from ATCC (LGC Promochem). HG-1 multiple myeloma cells were obtained from Dr. D. Hose (DKFZ Heidelberg). The CellSensor® HRE-bla HCT116 cell line (colorectal carcinoma) was obtained from Invitrogen.
Cells were grown under humidified 95% air, 5% CO2 at 37° C. in Dulbecco's modified Eagle's medium (DMEM: MCF-7) or RPMI 1640 medium (RPMI: HL-60, HG-1) supplemented with 10% fetal bovine serum (FBS), 100 U/ml penicillin and 100 μg/ml streptomycin, 2 mM L-glutamine, and 2 ng/ml IL-6 (for the HG-1 cell line only). The HCT116 cell line was grown under the same atmospheric conditions in McCoy's 5A medium supplemented with 10% FBS and penicillin/streptomycin as above, in addition to blasticidin as a selection marker at a final concentration of 5 μg/ml.
Cell proliferation experiments were carried out in 96-well tissue culture plates with seeding of 2000 cells/well (MCF-7) or 1000 cells/well (HL-60, HG-1) in 100 μl of the relevant medium. Cells were subsequently incubated under the conditions mentioned for 24 h prior to addition of compounds.
For the determination of compound EC50 values, 10 μl compounds at 11× concentrations in 5.5% DMSO were added to the wells at various concentrations yielding a final constant percentage of 0.5% DMSO at the desired 1× compound concentration. As a positive control, cells were treated with 5.5% DMSO. The cells were then incubated for a further 72 h prior to the measurement.
To determine the degree of inhibition of cell proliferation, cells were treated with ATPlite solution according to the manufacturer's instructions (PerkinElmer, ATPlite 1-step Luminescence ATP Detection Assay System) and luciferase readout measured on an Envision HTS multilabel plate reader (PerkinElmer) in luminescence mode according to established protocols. Raw data were imported into an ActivityBase database (IDBS, ID Business Solutions) and EC50 values calculated using the IDBS program ActivityBase XE. Table 2A and 2B show the IC50 values obtained in the above-outlined cell proliferation assay for exemplary compounds of the invention.

[1] = tested on: estrogen receptor (ER)-mediated transcriptional activity; assay: Inhibition of estrogen receptor (ER) signaling, ERE-tk-luc transfection assay in MCF-7 cells; format: cell-based; conditions: Homo sapiens, MCF7, ERE-tk-luc luciferase readout, 24 h
Experimental: To determine the effect of the compounds on estrogen receptor (ER)-mediated transcriptional activity a transfection assay using the MCF-7 cell line was performed. A luciferase-coupled ERE-tk-luc construct was obtained from Dr. G. Reid (EMBL).
In brief, MCF-7 cells were maintained as described previously and seeded on the first experimental day at a concentration of 3500 cells/well in 100 μl medium and incubated under standard conditions for 24 h. Following this initial incubation period, transfection was carried out using 5 ng of the ERE-tk-luc construct (per well) and Exgene 500 transfection reagent (Fermentas) in a final buffered solution containing 150 mM NaCl and 20 mM Tris pH 8.4. The plates were then maintained for 3-4 hours until cell culture conditions in the incubator before compounds were added at 11× concentrations to yield the final desired compound concentrations in 0.5% DMSO (in the same manner as for the proliferation assays described previously).
After an additional 24 h incubation period the degree of inhibition of ER-signaling was determined via a luciferase readout. Cells were treated with Britelite™ plus solution according to the manufacturer's instructions (PerkinElmer, britelite plus, Ultra-High Sensitivity Luminescence Reporter Gene Assay System) and luciferase levels measured on an Envision HTS multilabel plate reader (PerkinElmer) in luminescence mode according to established protocols. Raw data were imported into an ActivityBase database (IDBS, ID Business Solutions) and IC50 values calculated using the IDBS program ActivityBase XE.

caspase-3/7 = assay: Activation of apoptosis, Caspase-Glo 3/7 in HG-1 cells; format: cell-based; conditions: caspase-3/7 activation, 24 h
Experimental: Activation of caspase-3/7 signal following treatment with test compounds was carried out using a Caspase-Glo® 3/7 kit (Promega). In brief, HG-1 cells were seeded at a concentration of 1000 cells/well in 50 μl medium into 96-well plates and incubated for 24 h under the conditions described previously. Compounds at various concentrations were then added to the wells (at all final concentrations 0.5% DMSO) and incubated for a further 24 h period. The plates were subsequently removed from the incubator and allowed to equilibrate to room temperature, after which 50 μl Caspase-Glo reagent was added to all wells, the plate shaken at 300 rpm for 30 s, and luminescence measured after a 30 min incubation period on an Envision HTS (PerkinElmer).

Cc1ccc(S(=O)(=O)Nc2cc(-c3ccc(C#N)s3)ccc2C)cc1 [Example 47, N-[5-(5-Cyano-thiophen-2-yl)-2-methyl-phenyl]-4-methyl-benzenesulfonamide]
< 500 nM: EC50 (MCF7 cells) | EC50 (HG1 cells) | IC50 [1] | EC50 (caspase-3/7)
